The subject of this experiment is CT26 cells. The experiment can be described thus: Cell death type by FITC-annexin V and PI staining. Type of experiment: cell-based. The following applies: 5 μM VPF, 2 hours, ultrasound 5 minutes. On the procedure:
CT26 colorectal cells were cultured in an RPMI 1640 medium containing 10% fetal bovine serum (FBS) and 1% antibiotic-antimycotic. 5×10^6 of CT26 cells were treated with Ox@PEG-VPF and the controls for 2 hours based on 5 μM VPF, and then resuspended in 1 ml of the RPMI 1640 medium, followed by ultrasound treatment for 5 minutes.
After 100 μl of the CT26 cell suspension that had been treated with ultrasound was resuspended in 900 μl of the FITC-annexin V/PI mixed solution and maintained for 30 minutes, the resulting cells were washed twice with PBS and observed by confocal microscopy.
Specifically, the Ox@ PEG-VPF of the present invention reacted with a high concentration of ROS present in cancer cells to produce CO2 in the cells, and was treated with a FITC-labeled annexin compound (FITC-annexin V; excitation/emission wavelength—490/525 nm) and propidium iodide (PI; excitation/emission wavelength 535/617 nm) to confirm whether ICD occurs by the cavitation effect and cell membrane rupture caused by ultrasound.

verteporfin [VPF]: the “cell death type (FITC-annexin V / PI staining)” value is “induced the apoptosis of cancer cells”.

For the origin of these results see patent US20220370609A1, “Polymer complex for anticancer immune therapy based on ultrasound comprising oxalate derivatives and Method of preparation thereof” (RESEARCH & BUSINESS FOUNDATION SUNGKYUNKWAN UNIVERSITY, priority 2021, published 2022).
